Reference: a melting point compilation (Tetko et al.; mined from patent text by program, amines drawn as free bases though some values may be those of a salt)

SMILES | melting point [°C]
CN(C1CCN(Cc2cnc3ccccc3c2)CC1)S(=O)(=O)c1ccc(Nc2nccc(Nc3ccc(F)cc3)n2)cc1 | 125 to 127
Cc1nc(Cn2c(NC3CCN(CCc4c(C)nc5sccn5c4=O)CC3)nc3ccccc32)cs1 | 130
CCN1C(=O)C(C)(C)C(=O)N(C)c2cc(CN(CCn3ccc4oc(C)cc4c3=O)Cc3cccnc3Cl)ccc21 | 159 to 161
CCC(CC)c1nnc(S)n(N)c1=O | 162 to 164
OCC1CCC(CBr)CC1 (stereo unspecified) | 146 to 149
Cc1ccc(C(O)(c2ccc(C)cc2)C2CCNCC2)cc1 | 150 to 153
Cc1nccc(N2CCN(C(=O)C3CCN(S(=O)(=O)c4ccc(Br)cc4)CC3)CC2)n1 | 239 to 240
CN1C(=O)CN=C(c2ccccc2F)c2c1cc(Cl)c(NC(=O)C(F)(F)F)c2Cl | 238 to 240
O=S(=O)(N[C@H](CO)c1ccccc1)c1ccc(Cl)cc1 | 127 to 128
O=c1oc2cc(O)c(O)cc2c2c1CN(CCN1CCOCC1)CC2 | 299 to 302
CCOC(=O)C(=NOCC(=O)OCC(Cl)(Cl)Cl)c1csc(N)n1 | 138 to 141
CC(C)(C)c1cc(Cc2cc(C(C)(C)C)cc(C(C)(C)C)c2O)c(O)c(C(C)(C)C)c1 | 141 to 142
CC(C)(C)OC(=O)N1OC2C=CC1C2 (stereo unspecified) | 52 to 53
C[C@H](c1ccccc1)N1CCO[C@@H](c2ccc(C#N)cc2)C1 | 83.6
CNC1CCC2C3CCc4cc(OC)ccc4C3CCC12C (stereo unspecified) | 136 to 137
COc1cc(C(=O)N2CCC(CCN3CCC(C(=O)c4nc5ccccc5n4Cc4ccc(F)cc4)CC3)(c3ccc(C(F)(F)F)cc3)C2)cc(OC)c1OC (stereo unspecified) | 55 to 57
CCCCCCCCCCCCCCCCNc1ccc(C(=O)O)cc1 | 104 to 107

SMILES | melting point [°C]
CC(C)=C1CCCP1(=O)c1ccccc1 (stereo unspecified) | 143 to 146
O=C(O)c1ccc(CCCOCCCCCCNCC(O)c2ccc(O)c(CO)c2)cc1 (stereo unspecified) | 50 to 58
NC(=O)C1CCN(Cc2ccc(-c3cc4ncnc(Nc5ccc6[nH]ccc6c5)c4s3)cc2)CC1 | 198 to 205
CS(=O)(=O)c1ccc(-c2ccccc2C=O)cc1 | 115 to 116
Nc1ccc(S(=O)(=O)c2cc(Br)nc(N3CCNCC3)c2)cc1 | 173 to 175
CC1CCC(Nc2nccc(Oc3ccc(NC(=O)c4cc(F)cc(N5CCOCC5)c4)c4ccccc34)n2)CC1 (stereo unspecified) | 116 to 117
NCCCc1ccc(OCCC2Oc3ccccc3N(Cc3cccc(Cl)c3)C2=O)cc1 (stereo unspecified) | 109 to 111
O=Cc1ccc(OCCN2C(=O)COc3ccccc32)cc1 | 75 to 78
C[C@]12C(=O)[C@]3(C)O[C@]3(C)C(=O)[C@H]1[C@H]1C=C[C@@H]2C1 (racemic) | 72 to 73
Cc1cc(C2=NOC(c3cccc(C(F)(F)F)c3)(C(F)(F)F)C2)ccc1Br (stereo unspecified) | 84 to 85
CCCN(O)CCc1ccc2c(c1)C(=O)c1ccccc1CO2 | 121 to 124
CC1(O)CC(=O)OC(CCc2ccc(OCc3ccccc3)cc2)C1Br (stereo unspecified) | 155 to 160
OC1C(COCC(F)(F)F)OC(n2cnc3c(NC4CCCC4)ncnc32)C1O (stereo unspecified) | 74 to 76
CN1C(=O)[C@H](NC(=O)/C=C/c2ccc(Cl)cc2Cl)N=C(c2ccccc2)c2ccccc21 | 137 to 139
O=[N+]([O-])c1c(OC(F)(F)F)ccc2nc(Cl)sc12 | 64
CCCCCCCCCCNC(=O)N[C@H]1CCCNC(=O)C1 | 97 to 98

Continued, values first:

melting point [°C] | SMILES
195 to 200 | Cc1cccc(C(=O)n2c3c(c4ccccc42)CC(C(=O)O)(C(=O)O)CC3)c1
92 to 94 | CCCCc1oc2ccccc2c1C(=O)c1cc(Br)c(OCC(=O)O)c(Br)c1
150 to 152 | O=C(O)C(=O)CC(=O)c1cccn1Cc1ccccc1-c1ccccc1
103 to 104 | CO/C=C(/C(=O)OC)c1ccccc1Oc1nc(Cl)nc(Oc2ccccc2)n1
74 to 75.5 | CNC(=O)NCCCCc1cccc(OC)c1
154 to 156 | COc1c(Cl)nc(C(=O)O)c(Cl)c1N
218 to 220 | CC(=O)NCCCc1c[nH]c(-c2ccc(F)cc2)c1-c1ccncc1
194 to 196 | COc1ccc(C2(C#N)CCC(C(=O)O)CC2)c2c1oc1ccccc12 (stereo unspecified)
203 to 205 | COc1cc2c(cc1OC)-c1ccc(OC)c(OC)c1C2=Cc1ccnc2ccccc12
239 to 241 | COc1cc(S(C)=O)ccc1-c1ccc(C#N)c(=O)[nH]1 (stereo unspecified)
> 260 | CCOC(=O)c1cc(-c2csc(-c3ccnc(NCC4CC4)c3)n2)c(=O)[nH]c1C
195 | CC(C)c1ccc(C2c3[nH]c4ccccc4c3CCN2C(=O)C=Cc2cccc([N+](=O)[O-])c2)cc1 (stereo unspecified)
207 to 208 | COC(=O)C1Cc2c([nH]c3ccccc23)C(c2ccc3c(c2)OCO3)N1C(=O)CCl (stereo unspecified)
200 to 201 | NC(=O)C1=C(C(=O)Nc2cc(OC3CCCC3)c(Cl)cc2F)CCCC1
161 to 163 | CCC(=O)NCCc1c(-c2ccccc2)nn2ccc3occc3c12
72 to 73 | COc1cc([N+](=O)[O-])c(O)c(OC)c1OC
130 to 138 | COc1cccc2c(CCN(CC3CC3)C3COc4c(F)ccc(C(N)=O)c4C3)coc12 (stereo unspecified)
158 | O=C(OC1CCCCC1)C1=C(O)c2ccccc2S(=O)(=O)N1
118 to 123 | COc1c([N+](=O)[O-])ccc(N)c1Cl

melting point [°C] | SMILES
78 to 81 | Cc1ccccc1C(=O)NCC(C)O (stereo unspecified)
104 to 106 | CCOC(=O)C(C)=C(CC)NC(=O)Nc1cc(OC(C)C)c(Cl)cc1F
75 to 77 | CCCCCOC(=O)CNC(=O)c1nc(Cl)c2ccc(OC(C)C)cc2c1O
79 to 81.5 | CCc1ccccc1NC(=O)C(C#N)=C(C)N(C)C
196 to 198 | Cn1c(CC(=O)O)ccc1C(=O)c1ccc(C#N)cc1
145 to 147 | COc1ccc2[nH]c(/C=C/C=O)cc2c1
106 to 108 | CC(=O)NC1Cc2ccc(OC(=O)CCl)cc2C1 (stereo unspecified)
135 to 136 | COC(=O)C=Cc1c(C(=O)OC)[nH]c2c(C)ccc(C)c12
50 | CC(C)C(=CCS(=O)(=O)c1ccccc1)C(C)C
204 to 206 | COc1cc(OC)c2c(=O)[nH]c(-c3cc(C)c(OCCOCc4ccccc4)c(C)c3)nc2n1
240 to 242 | CCn1c(=O)[nH]c2c3ccccc3ccc21
154 to 156 | Cc1ccc(NC(=O)c2cc(Cl)ccc2NCC2CCN(C3CCS(=O)(=O)CC3)CC2)nc1
198 to 199 | CC[C@H](C)[C@H](NC(=O)OCc1ccccc1)C(=O)N[C@@H](CO)Cc1c[nH]c2ccccc12
167 to 170 | CC(C)(Oc1ccc2c(c1)CCc1c-2ccc2c1CCC2(C)C)C(=O)O
176 to 177 | O=C(O)Cn1cccc(OCc2ccccc2)c1=O
93 to 94 | COc1ccc(C(CCC(C)=O)C(=O)c2ccc(OCc3ccccc3)cc2)cc1 (stereo unspecified)
72 to 74 | CC(C)C[C@H](NC(=O)OC(C)(C)C)C(=O)C=[N+]=[N-]
222 to 225 | COc1ccc(Cn2cnc3c2CC(C(=O)O)N(C(=O)C(c2ccccc2)c2ccccc2)C3)cc1C (stereo unspecified)
264 to 267 | CC1(C)CC(=O)Nc2cc3nc(-c4cc5ccccc5[nH]4)[nH]c3cc21
